What was measured:
cocklebur = experiment: Test C pre-/postemergence herbicide test; assay type: in vivo, Xanthium strumarium; conditions: preemergence; for Plant response rating (0 = no effect, 100 = complete control), Cocklebur: 125 g ai/ha
Outline: (§1)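 Greenhouse-grown plants were evaluated visually 12 to 14 days after treatment, with 100 meaning complete control and 0 no effect. Application was preemergence, or postemergence at 2 to 18 cm.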

corn = experiment: Test C pre-/postemergence herbicide test; assay type: in vivo, Zea mays; conditions: preemergence; for Plant response rating (0 = no effect, 100 = complete control), Corn: 125 g ai/ha
Outline: as §1

large crabgrass = experiment: Test C pre-/postemergence herbicide test; assay type: in vivo, Digitaria sanguinalis; conditions: preemergence; for Plant response rating (0 = no effect, 100 = complete control), Crabgrass, Large: 125 g ai/ha
Outline: as §1

lambsquarters = experiment: Test C pre-/postemergence herbicide test; assay type: in vivo, Chenopodium album; conditions: preemergence; for Plant response rating (0 = no effect, 100 = complete control), Lambsquarters: 125 g ai/ha
Outline: as §1

eastern black nightshade = experiment: Test C pre-/postemergence herbicide test; assay type: in vivo, Solanum ptycanthum; conditions: preemergence; for Plant response rating (0 = no effect, 100 = complete control), Nightshade: 125 g ai/ha
Outline: as §1

pigweed = experiment: Test C pre-/postemergence herbicide test; assay type: in vivo, Amaranthus retroflexus; conditions: preemergence; for Plant response rating (0 = no effect, 100 = complete control), Pigweed: 125 g ai/ha
Outline: as §1

common ragweed = experiment: Test C pre-/postemergence herbicide test; assay type: in vivo, Ambrosia elatior; parameters: key to Plant response rating, Ragweed: 0 = no effect, 100 = complete control; conditions: preemergence; for Plant response rating (0 = no effect, 100 = complete control), Ragweed: 125 g ai/ha
Outline: as §1

[1] = test system: common (oilseed) sunflower; experiment: Test C pre-/postemergence herbicide test; assay type: in vivo, Helianthus annuus; conditions: preemergence; for Plant response rating (0 = no effect, 100 = complete control), Sunflower: 125 g ai/ha
Outline: as §1

velvetleaf = experiment: Test C pre-/postemergence herbicide test; assay type: in vivo, Abutilon theophrasti; conditions: preemergence; for Plant response rating (0 = no effect, 100 = complete control), Velvetleaf: 125 g ai/ha
Outline: as §1

[2] = test system: smallflower umbrella sedge; experiment: Test C flooded paddy test; assay type: in vivo, Cyperus difformis; conditions: for Plant response rating, Sedge, Umbrella: 500 g ai/ha, visual rating after 12 to 14 days
ducksalad = experiment: Test C flooded paddy test; assay type: in vivo, Heteranthera limosa; conditions: for Plant response rating, Ducksalad: 500 g ai/ha, visual rating after 12 to 14 days
barnyardgrass = experiment: Test C flooded paddy test; assay type: in vivo, Echinochloa crus-galli; conditions: for Plant response rating, Barnyardgrass: 500 g ai/ha, visual rating after 12 to 14 days
Outline: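 Injury scored visually against controls on a 0 (no effect) to 100 (complete control) scale, 12 to 14 days after treatment in greenhouse. Flooded paddy plants treated at 2-leaf stage; postemergence plants at 1- to 4-leaf stage, 2 to 18 cm tall.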

[3] = 500 g ai/ha, scale 0 to 100 (0 no effect, 100 complete control), visual, 12 to 14 days
[4] = 125 g ai/ha, scale 0 to 100 (0 no effect, 100 complete control)
[5] = 250 g ai/ha, scale of 0 to 100, 0 is no effect, 100 is complete control
[6] = scale 0 to 100 (0 no effect, 100 complete control)
[7] = 62 g ai/ha, scale 0 to 100 (0 no effect, 100 complete control)

Structure (SMILES): CCNC(=O)c1cccc(NC(=O)c2nn(C(C)(C)C)nc2C)c1 [Compound 392]
- Plant response rating, Cocklebur (cocklebur; 62 g ai/ha, scale 0 to 100): 0
- Plant response rating (0 = no effect, 100 = complete control), Cocklebur (cocklebur): 5
- Plant response rating, Cocklebur (cocklebur; 250 g ai/ha, scale 0-100): 20
- Plant response rating, Cocklebur (cocklebur; [3]): 80
- Plant response rating, Corn (corn; 62 g ai/ha, scale 0 to 100): 30
- Plant response rating (0 = no effect, 100 = complete control), Corn (corn): 50
- Plant response rating, Corn (corn; 250 g ai/ha, scale 0-100): 80
- Plant response rating, Corn (corn; [3]): 90
- Plant response rating, Crabgrass, Large (large crabgrass; 62 g ai/ha, scale 0 to 100): 98
- Plant response rating (0 = no effect, 100 = complete control), Crabgrass, Large (large crabgrass): 100
- Plant response rating, Crabgrass, Large (large crabgrass; 250 g ai/ha, scale 0-100): 100
- Plant response rating, Crabgrass, Large (large crabgrass; [3]): 100
- Plant response rating, Lambsquarters (lambsquarters; 62 g ai/ha, scale 0 to 100): 100
- Plant response rating (0 = no effect, 100 = complete control), Lambsquarters (lambsquarters): 100
- Plant response rating, Lambsquarters (lambsquarters; 250 g ai/ha, scale 0-100): 100
- Plant response rating, Lambsquarters (lambsquarters; [3]): 100
- Plant response rating, Nightshade (eastern black nightshade; 62 g ai/ha, scale 0 to 100): 90
- Plant response rating (0 = no effect, 100 = complete control), Nightshade (eastern black nightshade): 95
- Plant response rating, Nightshade (eastern black nightshade; 250 g ai/ha, scale 0-100): 100
- Plant response rating, Nightshade (eastern black nightshade; [3]): 100
- Plant response rating, Pigweed (pigweed; 62 g ai/ha, scale 0 to 100): 100
- Plant response rating (0 = no effect, 100 = complete control), Pigweed (pigweed): 100
- Plant response rating, Pigweed (pigweed; 250 g ai/ha, scale 0-100): 100
- Plant response rating, Pigweed (pigweed; [3]): 100
- Plant response rating, Ragweed (common ragweed; 62 g ai/ha, scale 0 to 100): 60
- Plant response rating (0 = no effect, 100 = complete control), Ragweed (common ragweed): 100
- Plant response rating, Ragweed (common ragweed; 250 g ai/ha, scale 0-100): 100
- Plant response rating, Ragweed (common ragweed; [3]): 100
- Plant response rating, Sunflower ([1]; 62 g ai/ha, scale 0 to 100): 10
- Plant response rating (0 = no effect, 100 = complete control), Sunflower [1]: 50
- Plant response rating, Sunflower [1, 3]: 100
- Plant response rating, Velvetleaf (velvetleaf; 62 g ai/ha, scale 0 to 100): 70
- Plant response rating (0 = no effect, 100 = complete control), Velvetleaf (velvetleaf): 100
- Plant response rating, Velvetleaf (velvetleaf; 250 g ai/ha, scale 0-100): 100
- Plant response rating, Velvetleaf (velvetleaf; [3]): 100
- Sedge, Umbrella plant response rating ([2]; 62 g ai/ha, scale 0 to 100): 70
- Sedge, Umbrella plant response rating [2, 4]: 75
- Sedge, Umbrella plant response rating [2, 5]: 85
- Plant response rating, Sedge, Umbrella [2, 6]: 85
- Ducksalad plant response rating (ducksalad; 62 g ai/ha, scale 0 to 100): 45
- Ducksalad plant response rating (ducksalad; [4]): 75
- Ducksalad plant response rating (ducksalad; [5]): 85
- Plant response rating, Ducksalad (ducksalad; [6]): 85
- Barnyardgrass plant response rating (barnyardgrass; [7]): 15
- Barnyardgrass plant response rating (barnyardgrass; [4]): 45
- Barnyardgrass plant response rating (barnyardgrass; [5]): 80
- Plant response rating, Barnyardgrass (barnyardgrass; [6]): 90

Structure (SMILES): CCc1nn(C(C)(C)C)nc1C(=O)Nc1cccc(C(=S)N(C)C)c1 [Compound 395]
- Plant response rating, Cocklebur (cocklebur; 62 g ai/ha, scale 0 to 100): 0
- Plant response rating (0 = no effect, 100 = complete control), Cocklebur (cocklebur): 15
- Plant response rating, Cocklebur (cocklebur; 250 g ai/ha, scale 0-100): 80
- Plant response rating, Cocklebur (cocklebur; [3]): 85
- Plant response rating, Corn (corn; 62 g ai/ha, scale 0 to 100): 0
- Plant response rating (0 = no effect, 100 = complete control), Corn (corn): 45
- Plant response rating, Corn (corn; 250 g ai/ha, scale 0-100): 85
- Plant response rating, Corn (corn; [3]): 90
- Plant response rating, Crabgrass, Large (large crabgrass; 62 g ai/ha, scale 0 to 100): 100
- Plant response rating (0 = no effect, 100 = complete control), Crabgrass, Large (large crabgrass): 100
- Plant response rating, Crabgrass, Large (large crabgrass; 250 g ai/ha, scale 0-100): 100
- Plant response rating, Crabgrass, Large (large crabgrass; [3]): 100
- Plant response rating, Lambsquarters (lambsquarters; 62 g ai/ha, scale 0 to 100): 100
- Plant response rating (0 = no effect, 100 = complete control), Lambsquarters (lambsquarters): 100
- Plant response rating, Lambsquarters (lambsquarters; 250 g ai/ha, scale 0-100): 100
- Plant response rating, Lambsquarters (lambsquarters; [3]): 100
- Plant response rating, Nightshade (eastern black nightshade; 62 g ai/ha, scale 0 to 100): 100
- Plant response rating (0 = no effect, 100 = complete control), Nightshade (eastern black nightshade): 100
- Plant response rating, Nightshade (eastern black nightshade; 250 g ai/ha, scale 0-100): 100
- Plant response rating, Nightshade (eastern black nightshade; [3]): 100
- Plant response rating, Pigweed (pigweed; 62 g ai/ha, scale 0 to 100): 100
- Plant response rating (0 = no effect, 100 = complete control), Pigweed (pigweed): 100
- Plant response rating, Pigweed (pigweed; 250 g ai/ha, scale 0-100): 100
- Plant response rating, Pigweed (pigweed; [3]): 100
- Plant response rating, Ragweed (common ragweed; 62 g ai/ha, scale 0 to 100): 65
- Plant response rating (0 = no effect, 100 = complete control), Ragweed (common ragweed): 95
- Plant response rating, Ragweed (common ragweed; 250 g ai/ha, scale 0-100): 100
- Plant response rating, Ragweed (common ragweed; [3]): 100
- Plant response rating, Sunflower ([1]; 62 g ai/ha, scale 0 to 100): 0
- Plant response rating (0 = no effect, 100 = complete control), Sunflower [1]: 0
- Plant response rating, Sunflower ([1]; 250 g ai/ha, scale 0-100): 50
- Plant response rating, Sunflower [1, 3]: 55
- Plant response rating, Velvetleaf (velvetleaf; 62 g ai/ha, scale 0 to 100): 95
- Plant response rating (0 = no effect, 100 = complete control), Velvetleaf (velvetleaf): 100
- Plant response rating, Velvetleaf (velvetleaf; 250 g ai/ha, scale 0-100): 100
- Plant response rating, Velvetleaf (velvetleaf; [3]): 100
- Sedge, Umbrella plant response rating ([2]; 62 g ai/ha, scale 0 to 100): 70
- Sedge, Umbrella plant response rating [2, 4]: 80
- Sedge, Umbrella plant response rating [2, 5]: 85
- Plant response rating, Sedge, Umbrella [2, 6]: 85
- Ducksalad plant response rating (ducksalad; 62 g ai/ha, scale 0 to 100): 15
- Ducksalad plant response rating (ducksalad; [4]): 20
- Ducksalad plant response rating (ducksalad; [5]): 55
- Plant response rating, Ducksalad (ducksalad; [6]): 55
- Barnyardgrass plant response rating (barnyardgrass; [7]): 75
- Barnyardgrass plant response rating (barnyardgrass; [4]): 80
- Barnyardgrass plant response rating (barnyardgrass; [5]): 80
- Plant response rating, Barnyardgrass (barnyardgrass; [6]): 90
